Measured values from patent US20230278972A1, “SUBSTITUTED HALOALKYL SULFONANILIDE HERBICIDES” (FMC Corporation, priority 2020, published 2023).

Columns and labels:
Assay type in all cases: in vivo
kochia (Bassia scoparia) = assay: Test A1 preemergence, kochia
How it was run: (§1)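 Herbicidal response was scored on plants treated either preemergence, by directed spray onto soil of a loam–sand blend after sowing, or postemergence on potted plants at the one- to two-leaf stage, 2–10 cm high. Test chemicals were carried in a non-phytotoxic solvent mix with surfactant.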

[1] = test system: Oat, Wild (wild oat, Avena fatua); assay: Test A1 preemergence, Oat, Wild
How it was run: as §1

[2] = test system: Pigweed, Palmer (palmer amaranth, palmer pigweed, Amaranthus palmeri); assay: Test A1 preemergence, Pigweed, Palmer
How it was run: as §1

soybean (Glycine max) = assay: Test A1 preemergence, soybean
How it was run: as §1

[3] = test system: wheat (Triticum aestivum); assay: Test A1 preemergence, wheat
How it was run: as §1

[4] = test system: Oat, Wild (wild oat, Avena fatua); assay: Test A1 postemergence, Oat, Wild; details: Postemergence
How it was run: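 Postemergence species (ragweed, Palmer pigweed, wild oat) were sprayed at one- to two-leaf stage, 2 to 10 cm tall. Corn was treated preemergence by directed soil spray. Both used a loam soil/sand blend and compounds in a non-phytotoxic solvent mixture with surfactant.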

[5] = test system: Ryegrass, Italian (Italian ryegrass, Lolium multiflorum); assay: Test A1 postemergence, Ryegrass, Italian; details: Postemergence
How it was run: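 Plants were grown in a loam soil/sand blend, with test chemicals formulated in a non-phytotoxic solvent mixture containing surfactant. Preemergence treatment (corn) was a directed soil spray at planting. Postemergence treatment was applied to plants 2 to 10 cm tall at the one- to two-leaf stage.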

[6] = test system: barnyardgrass (Echinochloa crus-galli); assay: Test B1 flooded paddy test, barnyardgrass; details: 250 g ai/ha, Flood, applied to paddy water, 2-leaf stage, visually evaluated after 10 to 14 days
From the text: (§2) A dash (-) response means no test result.

[7] = test system: ducksalad (Heteranthera limosa); assay: Test B1 flooded paddy test, ducksalad; details: 250 g ai/ha, Flood, applied to paddy water, 2-leaf stage, visually evaluated after 10 to 14 days
From the text: as §2

[8] = 31 g ai/ha, 0 to 100 scale (0 no effect, 100 complete control)
[9] = 125 g ai/ha, 0 to 100 scale, 0 no effect, 100 complete control
[10] = 31 g ai/ha, 0 to 100 scale (0 no effect, 100 complete control), 10 days

SMILES | Plant response rating, Kochia (kochia (Bassia scoparia); [8]) | Plant response rating, Kochia (kochia (Bassia scoparia); [9]) | Plant response rating, Oat, Wild [1, 8] | Plant response rating, Oat, Wild [1, 9] | Plant response rating, Pigweed, Palmer [2, 8] | Plant response rating, Pigweed, Palmer [2, 9] | Plant response rating, Soybean (soybean (Glycine max); [8]) | Plant response rating, Soybean (soybean (Glycine max); [9]) | Plant response rating, Wheat [3, 8] | Plant response rating, Wheat [3, 9] | Plant response rating, Oat, Wild [4, 10] | Plant response rating, Oat, Wild ([4]; 125 g ai/ha, 0 to 100 scale) | Plant response rating, Ryegrass, Italian [5, 10] | Plant response rating, Ryegrass, Italian ([5]; 125 g ai/ha, 0 to 100 scale) | Plant response rating, Barnyardgrass (0 to 100 scale, 0 is no effect, 100 is complete control) [6] | Plant response rating, Ducksalad (0 to 100 scale, 0 is no effect, 100 is complete control) [7]
C#CCN(C)C(=O)c1cc(NS(=O)(=O)C(F)(F)F)c(Cl)c(F)c1C [Compound 337] | 20 | 50 | 0 | 20 | 40 | 100 | 40 | 90 | 10 | 60 | 0 | 20 | 0 | 20 | 0 | 65
CCC1ON=C(c2cc(N(COC(=O)C(C)(C)C)S(=O)(=O)C(F)(F)F)c(C)cc2C)C1CC (stereo not shown) [Compound 347] | 0 | 50 | 0 | 0 | 20 | 50 | 0 | 0 | 0 | 20 | 10 | 20 | 0 | 60 | 95 | 55
Cc1c(C(=O)N2CCOCC2)cc(N(COC(=O)C(C)(C)C)S(=O)(=O)C(F)(F)F)c(C)c1C [Compound 324, [[(Trifluoromethyl)sulfonyl][2,3,4-trimethyl-5-(4-morpholinylcarbonyl)phenyl]amino]methyl 2,2-dimethylpropanoate] | 60 | 90 | 20 | 40 | 100 | 100 | 20 | 60 | 0 | 70 | 0 | 0 | 0 | 30 | 90 | 80
CCc1cc(C)c(NS(=O)(=O)C(F)(F)F)cc1C1=NOC2CCCC12 (stereo not shown) [Compound 305] | 0 | 40 | 20 | 60 | 40 | 60 | 0 | 40 | 20 | 40 | 20 | 20 | 0 | 40 | 90 | 90
Cc1cc(C)c(C2=NOC3(C)CCCC23)cc1NS(=O)(=O)C(F)(F)F (stereo not shown) [Compound 340] |  | 60 | 0 | 90 | 60 | 100 | 40 | 90 | 20 | 90 | 0 | 20 | 0 | 20 | 85 | 45
CCC1ON=C(c2cc(NS(=O)(=O)C(F)(F)F)c(C)cc2C)C1CC (stereo not shown) [Compound 343] | 30 | 70 | 0 | 70 | 40 | 90 | 50 | 60 | 10 | 90 | 0 | 50 | 20 | 80 | 85 | 45
CCC1ON=C(c2cc(N(C(=O)OCC(C)C)S(=O)(=O)C(F)(F)F)c(C)cc2C)C1CC (stereo not shown) [Compound 345] | 20 | 30 | 20 | 10 | 80 | 100 | 0 | 0 | 30 | 10 | 20 | 40 | 20 | 60 | 95 | 30
COCC1CC(c2cc(N(COC(=O)C(C)(C)C)S(=O)(=O)C(F)(F)F)c(C)cc2C)=NO1 (stereo not shown) [Compound 338] | 0 | 10 | 0 | 0 | 0 | 40 | 0 | 20 | 0 | 80 | 0 | 10 | 0 | 10 | 95 | 40
CCc1cc(C)c(C2=NOC3(CCCC3)C2)cc1NS(=O)(=O)C(F)(F)F [Compound 311] | 0 | 0 | 0 | 0 | 30 | 30 | 0 | 0 | 0 | 0 | 0 | 0 | 0 | 0 | 0 | 0
CCC1ON=C(c2cc(N(COC(=O)C(C)(C)C)S(=O)(=O)C(F)(F)F)c(C)cc2C)C1CC (stereo not shown) [Compound 344] | 0 | 30 | 0 | 10 | 50 | 80 | 50 | 50 | 0 | 0 | 20 | 30 | 30 | 40 | 95 | 90
Cc1c(NS(=O)(=O)C(F)(F)F)cc(C(=O)N2CC(C)OC(C)C2)c(C)c1C (stereo not shown) [Compound 328] | 20 | 90 | 0 | 30 | 100 | 100 | 50 | 90 | 0 | 30 | 0 | 0 | 30 | 60 | 40 | 90
CCC1ON=C(c2cc(N(C(=O)OCC(C)C)S(=O)(=O)C(F)(F)F)c(C)cc2C)C1CC (stereo not shown) [Compound 348] | 0 | 30 | 0 | 10 | 10 | 90 | 30 | 40 | 0 | 30 | 0 | 20 | 0 | 40 | 95 | 40
Cc1c(NS(=O)(=O)C(F)(F)F)cc(C(=O)N2CC(C)OC(C)C2)c(C)c1C (stereo not shown) [Compound 327] | 0 | 70 | 0 | 70 | 90 | 90 | 30 | 90 | 0 | 30 | 0 | 0 | 0 | 30 | 30 | 85
Cc1cc(C)c(N(COC(=O)C(C)(C)C)S(=O)(=O)C(F)(F)F)cc1C1=NOC2(C)CCCC12 (stereo not shown) [Compound 341] | 0 | 40 | 0 | 0 | 0 | 20 | 0 | 0 | 0 | 0 | 0 | 20 | 0 | 0 | 95 | 45
